Measured values taken from PMC7321301, “Characteristics of New Peptides GQLGEHGGAGMG, GEHGGAGMGGGQFQPV, EQGFLPGPEESGR, RLARAGLAQ, YGNPVGGVGH, and GNPVGGVGHGTTGT as Inhibitors of Enzymes Involved in Metabolic Syndrome and Antimicrobial Potential” (Molecules, 2020).
No end group written: not given here.

How the values were obtained:
[1] = target: angiotensin converting enzyme (ACE) (Homo sapiens, UniProt P12821); assay: ACE inhibitor activity (HHL substrate, OPA) and kinetics; assay type: biochemical; details: mean ± SD, triplicate; nd = not detected
Description: For all inhibitory activity, IC50 was calculated. The IC50 value defined as the concentration of the extract inhibiting 50% of the enzyme activity was determined by measuring the enzyme inhibitory activity and peptide contents in each sample. The IC50 value was calculated from the plotted graph of the inhibition activity for the five different peptide concentrations.
The angiotensin converting enzyme was prepared according to the method described by Karaś et al.. For ACE inhibitor activity, 5 μL of ACE was mixed with 5 μL of the samples and, after preincubation at 37 °C for 5 min, 5 μL of a 5 mM N-Hippuryl-L-histidyl-L-leucine (HHL) solution was added. The reaction was carried out at 37 °C for 60 min. Next, 0.1 M borate buffer with 0.2 M NaOH and 70 μL of an o-phthaldialdehyde OPA solution (20 mg/mL OPA in methanol) were added. The absorbance at 390 nm was measured using BioTek Microplate Readers ([…]).
Substrate solutions (5.0, 10.0, 15.0, and 20.0 mM) were prepared and used to determine the Michaelis constant (Km), the inhibition constant (Ki), and the maximum velocity (Vmax) of enzymes. The kinetic parameters were evaluated by Lineweaver–Burk’s method. The reaction conditions were the same as in the enzyme inhibitory activity assay.

COX-1 = target: T1, COX-1 (Ovis aries, UniProt P05979); assay: COX-1 inhibitory activity (COX Activity Assay kit) and kinetics; assay type: biochemical
T1 sequence (P05979 25-600): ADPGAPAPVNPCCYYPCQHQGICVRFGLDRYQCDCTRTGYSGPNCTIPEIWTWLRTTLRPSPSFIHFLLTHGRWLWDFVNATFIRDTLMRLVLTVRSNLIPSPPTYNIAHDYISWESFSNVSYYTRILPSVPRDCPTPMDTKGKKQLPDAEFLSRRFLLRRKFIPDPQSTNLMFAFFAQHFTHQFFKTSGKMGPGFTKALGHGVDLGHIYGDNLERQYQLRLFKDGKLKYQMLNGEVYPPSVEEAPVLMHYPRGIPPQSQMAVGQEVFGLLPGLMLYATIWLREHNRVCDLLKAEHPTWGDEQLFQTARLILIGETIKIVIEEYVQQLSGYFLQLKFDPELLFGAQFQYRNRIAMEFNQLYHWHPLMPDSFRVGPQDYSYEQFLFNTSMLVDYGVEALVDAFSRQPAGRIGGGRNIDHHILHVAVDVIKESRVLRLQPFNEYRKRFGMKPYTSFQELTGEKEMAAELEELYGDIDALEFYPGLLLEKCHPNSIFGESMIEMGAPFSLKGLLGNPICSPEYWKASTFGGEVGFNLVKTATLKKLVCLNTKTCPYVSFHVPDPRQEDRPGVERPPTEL
Description: For all inhibitory activity, IC50 was calculated. […] The IC50 value was calculated from the plotted graph of the inhibition activity for the five different peptide concentrations. The effect of the peptide on COX-1 and COX-2 was measured using the COX Activity Assay kit from Cayman Chemical (Item No. 760151, Ann Arbor, MI, USA). COX activity was determined according to the instructions provided with the kit. The enzyme activity was assayed by calorimetric measurement of the appearance of oxidized N,N,N′,N′-Tetramethyl-p-phenylenediamine (TMPD) at 590 nm using BioTek Microplate Readers (Epoch™ 2 BioTek, Bad Friedrichshall, Germany). […] The kinetic parameters were evaluated by Lineweaver–Burk’s method. The reaction conditions were the same as in the enzyme inhibitory activity assay.

HECa10 cells [2] = assay: MTT test; assay type: cell-based, murine; details: 24-h incubation, 0.1–100 µg/mL
Description: (§1) The study was conducted according to the procedure described by Rokicki et al.. HECa10 cells after 80–90% confluence were trypsinized (3 min, 37 °C), centrifuged (300 g, 5 min), counted, and plated in 96-well plates at a concentration of 1 × 10^4 cells/well. Then, 24 h after seeding, cells were washed with phosphate-buffered saline (PBS) solution and culture medium (Dulbecco’s Modified Eagle Medium (DMEM) + 10% fetal bovine serum (FBS) + antibiotics, all from Life Technologies, Warsaw, Poland) was added with test factors in concentrations: 0.1; 1; 5; 10; 50; 100 µg/mL). Then, 24 h after addition of the compounds, proliferation tests (MTT, NR, LDH) were performed. The color intensity was determined using a Fluostar Omega microplate reader. Results are presented as the mean ± SD of 3 independent experiments (n = 12).
Briefly, the cells were seeded in a 96-well culture plate at a concentration of 1 × 10^4 cells/well. Then, 24 h after seeding, the cells were rinsed twice with PBS (Life Technologies, Warsaw, Poland) and resuspended in fresh growth medium. Peptide fractions were added at concentrations of 0 (control), 0.1, 1, 5, 10, 50, and 100 µg/mL. After 24 h incubation with the proteins, the assessment of cell metabolic activity based on MTT tests was performed (MTT kit, Sigma Aldrich, Poznań, Poland). The absorbance was measured at 570 nm with a FLUOstar Omega reader (BMG Labtech GmbH, Ortenberg, Germany). The results are presented as the percentage of the control values (mean ± SD). Each assay was performed in triplicate (n = 18).

HECa10 cells [3] = assay: LDH test; assay type: cell-based, murine; details: 24-h incubation, 0.1–100 µg/mL
Description: as §1
The cells were seeded in a 96-well culture plate at a concentration of 1 × 10^4 cells/well. Then, 24 h after seeding, the cells were rinsed twice with PBS (Life Technologies, Poland) and resuspended in fresh growth medium. Peptide fractions were added at concentrations of 0 (control), 0.1, 1, 5, 10, 50, and 100 µg/mL. After 24 h incubation with the proteins, activity of released from cells lactate dehydrogenase was assessed (Pierce Ldh Cytotoxicity Assay Kit, Life Technologies, Warsaw Poland).The absorption was measured at a wavelength of 540 nm with the background cutoff at 490 nm (FLUOstar Omega, BMG Labtech GmbH, Ortenberg, Germany). The results are presented as the percentage of the control values (mean ± SD). Each assay was performed in triplicate (n = 18).

angiotensin converting enzyme (ACE), sequence (P12821 30-1306, species assumed): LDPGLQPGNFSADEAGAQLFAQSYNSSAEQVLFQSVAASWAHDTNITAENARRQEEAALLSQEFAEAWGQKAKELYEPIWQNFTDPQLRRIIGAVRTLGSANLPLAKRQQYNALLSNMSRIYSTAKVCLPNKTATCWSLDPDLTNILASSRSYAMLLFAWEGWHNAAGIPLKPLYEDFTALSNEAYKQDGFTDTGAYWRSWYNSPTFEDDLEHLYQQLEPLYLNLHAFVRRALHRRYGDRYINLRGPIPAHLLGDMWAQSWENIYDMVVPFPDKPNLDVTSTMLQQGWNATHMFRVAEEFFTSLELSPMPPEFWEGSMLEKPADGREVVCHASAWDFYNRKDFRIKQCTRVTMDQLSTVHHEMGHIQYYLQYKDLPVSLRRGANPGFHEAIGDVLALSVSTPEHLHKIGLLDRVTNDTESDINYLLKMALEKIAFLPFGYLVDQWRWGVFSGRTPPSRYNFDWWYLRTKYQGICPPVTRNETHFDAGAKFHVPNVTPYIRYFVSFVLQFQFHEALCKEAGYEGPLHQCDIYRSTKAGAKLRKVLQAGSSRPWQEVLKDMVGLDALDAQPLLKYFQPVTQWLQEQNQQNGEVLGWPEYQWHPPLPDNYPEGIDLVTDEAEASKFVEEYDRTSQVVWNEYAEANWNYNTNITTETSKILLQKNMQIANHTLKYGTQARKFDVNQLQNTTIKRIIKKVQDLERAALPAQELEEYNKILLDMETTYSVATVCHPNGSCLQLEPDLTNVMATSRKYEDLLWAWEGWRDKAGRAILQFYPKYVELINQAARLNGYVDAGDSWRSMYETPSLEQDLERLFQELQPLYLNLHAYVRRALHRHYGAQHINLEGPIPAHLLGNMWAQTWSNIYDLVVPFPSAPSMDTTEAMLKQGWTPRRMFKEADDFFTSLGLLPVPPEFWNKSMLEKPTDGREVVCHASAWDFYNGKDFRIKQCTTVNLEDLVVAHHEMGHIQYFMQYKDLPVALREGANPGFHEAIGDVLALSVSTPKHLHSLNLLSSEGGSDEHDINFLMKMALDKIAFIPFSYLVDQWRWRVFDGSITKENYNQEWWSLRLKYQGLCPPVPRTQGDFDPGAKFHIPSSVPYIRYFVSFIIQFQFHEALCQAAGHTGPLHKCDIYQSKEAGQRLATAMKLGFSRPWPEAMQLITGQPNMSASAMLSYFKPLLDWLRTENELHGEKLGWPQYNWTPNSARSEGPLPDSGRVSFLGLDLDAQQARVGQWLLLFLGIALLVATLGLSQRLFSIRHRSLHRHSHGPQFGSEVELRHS

Row | Sequence | IC50 [1] [µM] | IC50 (COX-1) [µM] | MTT test, HECa10 cell count compared to control (HECa10 cells [2]) | LDH activity test, HECa10 cells compared to control (HECa10 cells [3]) | IC50 ACE [1]
1 | GNPVGGVGHGTTGT [GT-14, GNPVGGVGHGTTGT] | 434 | 12.3 | no statistically significant differences | no statistically significant differences | 
2 | YGNPVGGVGH [YH-10, YGNPVGGVGH] | 522 | 17.4 | declined statistically significantly | no statistically significant differences | 
3 | GEHGGAGMGGGQFQPV [GV-16, GEHGGAGMGGGQFQPV] | 490 | 8 | no statistically significant differences | no statistically significant differences | 
4 | EQGFLPGPEESGR [ER-13, EQGFLPGPEESGR] | 457 | 4.78 | no statistically significant differences | no statistically significant differences | 
5 | GQLGEHGGAGMG [GG-12, GQLGEHGGAGMG] | 525 | 7.11 | no statistically significant differences | no statistically significant differences | 
6 | RLARAGLAQ [RQ-9, RLARAGLAQ] |  | 0.325 | no statistically significant differences | no statistically significant differences | no inhibitory effect
